# Results: patent US20260273107A1, “COMPOUND PHARMACEUTICAL PREPARATION CONTAINING OIL COMPONENT COMPRISING POLYOXYETHYLENE STRUCTURE” (CHUGAI SEIYAKU KABUSHIKI KAISHA, priority 2022, published 2026)
# Where two headings read alike, the source gives them in different places. Numbered stars: 1 amine (or outer) side, 2 acyl side, 3 side chain; on linkers, the order of the positions; unused ones are H or OH. Bridge positions count the residues as written; N and C are the ends. Square brackets hold non-standard residues; d marks the D form. Peptide text beside a SMILES is read from it. * marks the point of attachment. hPhe(3-Cl-4-CF3) = N[C@@H](CCc1ccc(C(F)(F)F)c(Cl)c1)C(=O)O; X1 = CN(C(CC(=O)[*:2])C(=O)C1CCCCC1)[*:1]; Bta = N[C@@H](Cc1csc2ccccc12)C(=O)O; NMeCha = CN[C@@H](CC1CCCCC1)C(=O)O; NMeChg = CN[C@H](C(=O)O)C1CCCCC1; NMeF = CN[C@@H](Cc1ccccc1)C(=O)O; NMeI = CC[C@H](C)[C@H](NC)C(=O)O; NMeL = CN[C@@H](CC(C)C)C(=O)O; NMeV = CN[C@H](C(=O)O)C(C)C; NMeAbu = CC[C@H](NC)C(=O)O; NMeA = CN[C@@H](C)C(=O)O; Piperidide = C1CCN(*)CC1; Ac5c = NC1(C(=O)O)CCCC1; Sar = CNCC(=O)O; tBu = CC(C)(C)*
# Key:
# [1] = In vitro solubility evaluation in 50 mM phosphate buffer solution (PPB, pH 6.5), room temperature (Example 2-1); format: physicochemical; conditions: 50 mM phosphate buffer pH 6.5, room temperature, shaking 24 hours, no surfactant; read-out: solubilities, PPb
# Experimental: (§1) To lyophilized powder of the compound, a 50 mM phosphate buffer solution (PPB: Phosphate buffer, pH 6.5) was added, and after shaking (at room temperature, 1800 rpm, for 24 hours), the mixed solution was filtered through a filter, and the compound concentration of the filtrate was measured by LC/MS/MS. […] To the compound powder, Cremophor EL (CreEL) (manufactured by Sigma-Aldrich Co., Ltd., “Kolliphor EL”, generic name: polyoxyethylene castor oil, average number of moles of ethylene oxide added 35), Vitamin E TPGS (manufactured by Sigma-Aldrich Co., Ltd.), an aqueous solution containing 1% TW80 (manufactured by Nacalai Tesque, Inc.), an aqueous solution containing 1.5% Ploxamer 188 (manufactured by BASF SE), or an aqueous solution containing 0.5% Triton X-100 was added, the mixed solution was stirred (at room temperature, for 20 hours) with a stirrer, and then filtered through a filter, and the compound concentration of the filtrate was measured by LC/UV. Solubility (μg/mL) was calculated from the measured compound concentration. […] From the above, CreEL and Vitamin E TPGS were selected as substrates that improve solubility independently of compounds, and evaluation of oral absorbability was performed.
# [2] = Evaluation of Caco-2 membrane permeability; format: in vitro ADME; conditions: human, Apical FaSSIF/HBSS pH 6.0 to Basal HBSS 4% BSA pH 7.4, 180 minutes, after 18 to 24 hours preincubation, read-out: Caco2 (Papp)
# Experimental: The permeability coefficient (Caco-2 Papp (cm/sec)) is calculated using a numerical expression 1.
# [formula] • where dQ/dt is the permeation rate of the drug (amount of drug appearing on the Basal side per unit time), S is the total cell surface area, and C1 (0) is the concentration of drug added on the Apical side.
# Caco-2 cells were cultured on 96-well Transwell for 3 weeks, then DMEM, FaSSIF (1% DMSO), and the compound were added to the Apical side, DMEM was added to the Basal side, and the cells were preincubated under 5% CO2 at 37° C. with shaking at 80 rpm for 18 to 24 hours. After the preincubation, the preincubation solutions on the Apical side and Basal side were sucked off and washed, a FaSSIF/HBSS buffer solution (1% DMSO) (pH 6.0) containing the compound was added to the Apical side, a HBSS buffer solution (4% BSA) (pH 7.4) was added to the Basal side, and measurement of membrane permeability was started. Each well was shaken under 5% CO2 at 37° C. and 80 rpm, and at 180 minutes after the start of shaking, a sample on the Basal side was collected, and the permeation amount was measured by LC/MS. From the permeation amount, the membrane permeability coefficient (Papp) was calculated. Note that the description “Caco-2 (cm/sec)” in the column in the table herein is used synonymously with “Papp (cm/sec)”.
# [3] = Solubility in the presence of a surfactant (Example 2-1); format: physicochemical; conditions: room temperature, stirred 20 hours
# Experimental: as §1
# [4] = Solubility of cyclic peptide compound in 50 mM phosphate buffer solution (pH 6.5), 37° C. (Example 3-3); format: physicochemical; conditions: shaking 22 to 24 hours, read-out: solubility in 50 mM phosphate buffer solution (PPB)
# Experimental: Evaluation of the solubility of the cyclic peptide compound was performed. To lyophilized powder of the compound, a 50 mM phosphate buffer solution (PPB: Phosphate buffer, pH 6.5) was added, and after shaking (at 37° C., 1800 rpm, for 22 to 24 hours), the mixed solution was filtered through a filter, and the compound concentration of the filtrate was measured by LC/MS/MS. Solubility was calculated from the measured compound concentration. The solubilities of the compounds 3, 4, 6, 7, and 8 were 11 μg/mL, 1 μg/mL, 1 μg/mL, 15 μg/mL, and 5 μg/mL, respectively.
# [5] = Solubility in aqueous solution containing 0.3% or 1% Cremophor EL (Example 3-3); format: physicochemical; conditions: 25° C., 22 to 24 hours
# Experimental: Evaluation of the solubility of the cyclic peptide compound in the presence of a surfactant was performed. To lyophilized powder of the compound, an aqueous solution containing 0.3% or 1% Cremophor EL (CreEL) was added, and after shaking (at 25° C., 1000 rpm, for 22 to 24 hours), the mixed solution was filtered through a filter, and the compound concentration of the filtrate was measured by LC/UV. Solubility (μg/mL) was calculated from the measured compound concentration.
# [6] = 0.5% Triton X-100 aqueous solution, read-out: solubilities, TritonX-100 (0.5% aqueous solution)
# [7] = 1% Cremophor EL aqueous solution, read-out: solubilities, CreEL (1% aqueous solution)
# [8] = 1% TW80 aqueous solution, read-out: solubilities, TW80 (1% aqueous solution)
# [9] = 1% Vitamin E TPGS aqueous solution, read-out: solubilities, VitaminE TPGS (1% aqueous solution)
# [10] = 1.5% Poloxamer 188 aqueous solution, read-out: solubilities, Poloxamer 188 (1.5% aqueous solution)
# [11] = 0.3% Cremophor EL aqueous solution, read-out: solubility, 0.3% Cremophor EL
# [12] = 1% Cremophor EL aqueous solution, read-out: solubility, 1% Cremophor EL
solubility at 24 h [1],Papp A→B at 180 min [2],"solubility at 20 h [3, 6]","solubility at 20 h [3, 7]","solubility at 20 h [3, 8]","solubility at 20 h [3, 9]","solubility at 20 h [3, 10]","solubility [5, 11]","solubility [5, 12]",SMILES,solubility [4]
1 µg/mL,0.71 ×10⁻⁶ cm/s,743 µg/mL,3380 µg/mL,1270 µg/mL,3100 µg/mL,< 13 µg/mL,,,CC[C@H](C)[C@@H]1NC(=O)[C@H](CC(C)C)N(C)C(=O)CC(C(=O)C2CCCCC2)N(C)C(=O)[C@H](C2CCCCC2)N(C)C(=O)C2(CCCC2)NC(=O)[C@@H]2CCCN2C(=O)[C@H](CCc2ccc(C(F)(F)F)c(Cl)c2)NC(=O)CN(C)C(=O)[C@H](CC2CCCCC2)N(C)C(=O)CN(C)C(=O)CN(C)C1=O (stereo partly shown) [Compound 1] (cyclo([Ac5c][NMeChg][X1][NMeL]I[Sar][Sar][NMeCha][Sar][hPhe(3-Cl-4-CF3)]P)),
11 µg/mL,5.99 ×10⁻⁶ cm/s,498 µg/mL,1050 µg/mL,707 µg/mL,1950 µg/mL,31 µg/mL,,,CC[C@H](C)[C@H]1C(=O)N[C@@H](COC(C)(C)C)C(=O)N(C)[C@@H](Cc2ccccc2)C(=O)N(C)[C@@H](C(C)C)C(=O)N[C@H](C(=O)N2CCCCC2)CC(=O)N(C)[C@@H](C)C(=O)N(C)[C@@H](Cc2ccccc2)C(=O)N[C@@H](CC(C)C)C(=O)N(C)[C@@H](CC(C)C)C(=O)N[C@@H]([C@@H](C)O)C(=O)N(C)CC(=O)N1C [Compound 2] ([NMeA][NMeF]L[NMeL]T[Sar][NMeI]S(tBu)[NMeF][NMeV]D-Piperidide; lactam N-11),
,1.45 ×10⁻⁶ cm/s,,,,,,214 µg/mL,789 µg/mL,CC(C)C[C@@H]1NC(=O)[C@H](Cc2ccccc2)N(C)C(=O)[C@H](COC(C)(C)C)NC(=O)[C@H](Cc2ccccc2)N(C)C(=O)[C@H](C)N(C)C(=O)[C@H](CC(C)C)N(C)C(=O)[C@@H](C)NC(=O)C[C@@H](C(=O)N2CCCCC2)NC(=O)[C@H](Cc2ccccc2)N(C)C(=O)[C@H]([C@@H](C)O)NC(=O)[C@H](CC(C)C)N(C)C1=O [Compound 4] ([dA][NMeL][NMeA][NMeF]S(tBu)[NMeF]L[NMeL]T[NMeF]D-Piperidide; lactam N-11),1 µg/mL
,1.42 ×10⁻⁶ cm/s,,,,,,295 µg/mL,1110 µg/mL,CC[C@H]1C(=O)N[C@@H](COC(C)(C)C)C(=O)N(C)[C@@H](Cc2ccccc2)C(=O)N(C)[C@@H](C)C(=O)N[C@H](C(=O)N2CCCCC2)CC(=O)N[C@H](CC(C)C)C(=O)N(C)[C@@H](CC(C)C)C(=O)N[C@@H](Cc2csc3ccccc23)C(=O)N(C)[C@@H](CC(C)C)C(=O)N[C@@H]([C@@H](C)O)C(=O)N(C)CC(=O)N1C [Compound 5] ([dL][NMeL][Bta][NMeL]T[Sar][NMeAbu]S(tBu)[NMeF][NMeA]D-Piperidide; lactam N-11),

SMILES,solubility at 24 h [1],Papp A→B at 180 min [2],"solubility at 20 h [3, 6]","solubility at 20 h [3, 7]","solubility at 20 h [3, 8]","solubility at 20 h [3, 9]","solubility at 20 h [3, 10]","solubility [5, 11]","solubility [5, 12]",solubility [4]
CC(C)C[C@@H]1NC(=O)[C@H](Cc2ccccc2)N(C)C(=O)[C@@H](C(C)C)NC(=O)C[C@@H](C(=O)N2CCCCC2)NC(=O)[C@H](C(C)C)N(C)C(=O)[C@H](Cc2ccccc2)N(C)C(=O)[C@H](COC(C)(C)C)NC(=O)[C@H](CC(C)C)N(C)C(=O)CN(C)C(=O)[C@H]([C@@H](C)O)NC(=O)[C@H](CC(C)C)N(C)C1=O [Compound 3] ([dV][NMeF]L[NMeL]T[Sar][NMeL]S(tBu)[NMeF][NMeV]D-Piperidide; lactam N-11),,4.07 ×10⁻⁶ cm/s,,,,,,101 µg/mL,395 µg/mL,11 µg/mL
